The record followed here is patent US11236055B2 (Venenum Biodesign, LLC, priority 2016, dated 2022).

One data set has as its target T1, human TGR5 receptor (Homo sapiens, UniProt Q8TDU6).
T1 construct: host or cells: CHO-K1 (hTGR5-CHO cells)
T1 sequence (Q8TDU6 1-330): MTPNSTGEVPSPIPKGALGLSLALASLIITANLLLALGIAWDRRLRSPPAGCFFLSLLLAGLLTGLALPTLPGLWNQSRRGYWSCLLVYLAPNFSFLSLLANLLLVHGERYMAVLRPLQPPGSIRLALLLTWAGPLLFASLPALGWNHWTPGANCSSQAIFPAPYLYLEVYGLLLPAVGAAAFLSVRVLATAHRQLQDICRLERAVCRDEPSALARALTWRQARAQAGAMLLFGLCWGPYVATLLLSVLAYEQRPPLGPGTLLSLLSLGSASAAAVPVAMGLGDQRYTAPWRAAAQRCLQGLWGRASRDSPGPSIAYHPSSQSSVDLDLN
Put plainly: Human TGR5 cAMP production assay. The settings on record: human TGR5, luminescent cAMP assay; coded A-D; read-out: Human TGR5 Lum. cAMP Activity (EC50). Format: cell-based. In short, it runs like this:
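CHO-K1 cells stably expressing human TGR5, with IBMX and cAMP antibody, were exposed to half-log serially diluted compound for 1 h at room temperature. cAMP measured by enzyme-fragment complementation luminescence (XS+ kit) after overnight incubation; EC50 values reported.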

The target of data set [1] is T2, mouse TGR5 receptor (Mus musculus, UniProt Q80SS6).
T2 construct: expressed in transfected cells; host or cells: HEK293-EBNA (293 c18, ATCC CRL10852), Hygromycin B selection
T2 sequence (Q80SS6 1-329): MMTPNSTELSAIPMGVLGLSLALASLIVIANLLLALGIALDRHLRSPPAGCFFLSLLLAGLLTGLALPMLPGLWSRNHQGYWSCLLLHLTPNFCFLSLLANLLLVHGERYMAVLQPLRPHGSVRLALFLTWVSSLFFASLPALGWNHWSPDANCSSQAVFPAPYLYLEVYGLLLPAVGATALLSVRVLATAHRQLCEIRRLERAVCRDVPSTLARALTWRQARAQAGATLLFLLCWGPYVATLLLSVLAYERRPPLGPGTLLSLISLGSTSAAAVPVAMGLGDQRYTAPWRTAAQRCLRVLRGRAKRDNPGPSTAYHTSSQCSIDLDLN
Put plainly: Mouse TGR5 cAMP production assay (HTRF, Cisbio cAMP HiRange). Format: cell-based. The settings on record: HEK293-EBNA cells overexpressing mouse TGR5, HTRF cAMP HiRange; coded A-D. In outline:
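cAMP read by HTRF competition after 1 h room-temperature compound exposure of mouse TGR5-overexpressing HEK293-EBNA cells. Cells were suspended in serum-free DMEM containing 500 μM IBMX; compounds ran as 12-point half-log dilutions in duplicate; EC50 derived.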
(In general: Changes in cAMP serve as a functional read-out for many G protein-coupled receptors.)

The nature of data set [2]: Pharmacokinetic profile in mice. Format: in vivo. Particulars: mouse; fasted male Hilltop mice, 10 mg/kg oral gavage, plasma, mean of three mice. How it is done:
Pharmacokinetic Profile in Mice
In this series of studies, the pharmacokinetic profile characteristics of compounds of the present invention were evaluated. The plasma concentration levels of the compounds were monitored in the blood stream (i.e., plasma) after oral gavage using Cmax, and area under the curve (AUC).
8 week old male Hilltop mice were fasted overnight. Animals were randomized into groups (n=9) by body weight. Mice were dosed with 10 mg/kg compound (in 20% PEG400/80% 0.5% carboxymethylcellulose (medium viscosity)+0.25% Tween-80) at a volume of 10 mL/kg through oral gavage. Blood was collected via orbital bleeding at 0, 0.25, 0.5, 1, 2, and 4 h post-dose, with no one mouse having more than 3 blood draws. Blood was collected in EDTA coated tubes. Samples were stored at −20° C. until analysis.
Quantitation of compound levels in plasma was accomplished by LC-MS/MS analysis. Standard curve and quality control samples were prepared in male CD-1 mouse plasma containing EDTA K^2+ as an anticoagulant at final concentrations ranging from 500 to 0.1 ng/mL. The plasma samples, calibration curve standards, and quality control samples were prepared in an identical method in a 96-well deep plate (1 mL) with a quenching solution (1:1 mixed acetonitrile:methanol containing the internal standard Reserpine @ 400 ng/mL). Low volume samples were supplemented with CD-1 mouse plasma. The plate was mixed on multi-tube votex for 1 min and centrifuged at 4000 rpm for 30 min at 4° C. (Sorvall® Super T21) before LC-MS/MS analysis. LC conditions were developed and optimized based on each compound as needed. The outlet of the column was coupled to AB Sciex 4000 QTrap Mass Spectrometer (AB Sciex, Brugg Switzerland). Detection was carried out using multiple reaction monitoring mode with positive-ion detection focusing. The pharmacokinetic parameters were derived from the plasma-time data and calculated using the standard non-compartmental method with WinNonlin (Pharsight, Mountain View, Calif.) or PK Solver (Comp. Meth. Prog. Biomed. (2010), 99, 306-314).
Values reported are the mean plasma concentration of three mice.

Data set [3] has as its target T2, mouse TGR5 receptor. Nature of the data set: Mouse TGR5 cAMP production assay (luminescent, DiscoveRx cAMP XS+). The data set is classed as cell-based. The settings on record: HEK293-EBNA cells overexpressing mouse TGR5, luminescent cAMP XS+; coded A-D; read-out: Mouse TGR5 Lum. cAMP Activity (EC50). In outline: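 HEK293-EBNA cells stably expressing mouse TGR5 were suspended in serum-free DMEM with 500 μM IBMX and preincubated 20 min with cAMP antibody. They were then exposed to half-log compound dilutions for 1 h at room temperature. cAMP measured by enzyme-fragment complementation luminescence after overnight incubation; EC50 derived.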

In general, EC50 refers to the concentration at which the effect is half-maximal. Usually Cmax stands for the maximum level reached in the sampled fluid or tissue. On to `Cc1cnccc1-c1cccc([C@H](C)N(CCCC(=O)NCCS(=O)(=O)NCC(=O)O)S(=O)(=O)c2cccc(Cl)c2Cl)c1` [Compound 36AA, (S)-2-(4-(3-chloro-N-(1-(3-(3-methylpyridin-4-yl)phenyl)ethyl)-2-chloro-phenylsulfonamido)butanamido)ethanesulfonamido acetic acid], for which the EC50 at human TGR5 receptor and at mouse TGR5 receptor [1] was below 100 nM in each case. Further, the concentration in data set [2] peaked (Cmax) at 7.5 ng/mL.
As for `Cc1cnccc1-c1cccc(C(C)(C)N(CCCNC(=O)NCCS(N)(=O)=O)S(=O)(=O)c2cccc(Cl)c2C)c1` [Compound 29AB], the EC50 on human TGR5 receptor and at mouse TGR5 receptor [1] was below 100 nM each time. This compound displayed a Cmax in data set [2] of 109 ng/mL.
With `CCc1cnccc1-c1cccc(C2CN(S(=O)(=O)CC(=O)O)CCN2S(=O)(=O)c2cccc(Cl)c2C)c1` (stereo not shown) [Compound 47, 2-((4-((3-Chloro-2-methylphenyl)sulfonyl)-3-(3-(3-ethylpyridin-4-yl)phenyl)piperazin-1-yl)sulfonyl)acetic acid], the EC50 on human TGR5 receptor and on mouse TGR5 receptor [1] was below 100 nM each time. The compound also had a Cmax in data set [2] of 228 ng/mL.
Take `Cc1cnccc1-c1cccc([C@H](C)N(CCCC(=O)NCCNS(N)(=O)=O)S(=O)(=O)c2cccc(Cl)c2C)c1` [Compound 37, (S)-4-(3-chloro-2-methyl-N-(1-(3-(3-methylpyridin-4-yl)phenyl)ethyl)phenylsulfonamido)-N-(2-(sulfamoylamino)ethyl)butanamide]: the EC50 on human TGR5 receptor and at mouse TGR5 receptor [1] was below 100 nM throughout. Moreover, the peak level in data set [2] (Cmax) was 122 ng/mL.
Take `Cc1cnccc1-c1cccc(C(C)(C)N(CCCNC(=O)CS(=O)(=O)O)S(=O)(=O)c2cccc(Cl)c2C)c1` [Compound 31AB, 2-((3-(3-chloro-2-methyl-N-(2-(3-(3-methylpyridin-4-yl)phenyl)propan-2-yl)phenylsulfonamido)propyl)amino)-2-oxoethanesulfonic acid]: the EC50 on human TGR5 receptor and at mouse TGR5 receptor [1] was below 100 nM in each case. Besides, in data set [2], the highest concentration (Cmax) turned out to be 35.8 ng/mL.
Consider `Cc1cnccc1-c1cccc(C(C)(C)N(CCCC(=O)NCC(N)=O)S(=O)(=O)c2cccc(Cl)c2C)c1` [Compound 21AC, N-(2-amino-2-oxoethyl)-4-(3-chloro-2-methyl-N-(2-(3-(3-methylpyridin-4-yl)phenyl)propan-2-yl)phenylsulfonamido)butanamide], for which the EC50 on human TGR5 receptor and on mouse TGR5 receptor [1] was below 100 nM throughout. In data set [2], this compound registered a Cmax of 269 ng/mL.
Regarding `CCc1cnccc1-c1cccc(C2CN(C(=O)CCCC(=O)O)CCN2S(=O)(=O)c2cccc(Cl)c2C)c1` (stereo not shown) [Compound 46AA, 5-(4-((3-chloro-2-methylphenyl)sulfonyl)-3-(3-(3-ethylpyridin-4-yl)phenyl)piperazin-1-yl)-5-oxopentanoic acid], the EC50 at human TGR5 receptor and at mouse TGR5 receptor [1] was below 100 nM in each case. For the same compound, the Cmax in data set [2] came out at 1.6 ng/mL.
As to `Cc1cnccc1-c1cccc(C(C)(C)N(CCCC(=O)NCC[N+](C)(C)C)S(=O)(=O)c2cccc(Cl)c2C)c1` [Compound 27AD, 2-(4-(3-chloro-2-methyl-N-(2-(3-(3-methylpyridin-4-yl)phenyl)propan-2-yl)phenylsulfonamido)butanamido)-N,N,N-trimethylethanaminium], the figures for the EC50 on human TGR5 receptor and at mouse TGR5 receptor [1] were below 100 nM and 100 to 999 nM, respectively. The compound also had a Cmax in data set [2] of 25.4 ng/mL.
For `Cc1cnccc1-c1cccc(C(C)(C)N(CCCN/C(=N\C#N)NCCC(=O)O)S(=O)(=O)c2cccc(Cl)c2C)c1` [Compound 25, (E)-3-(3-(3-((3-chloro-2-methyl-N-(2-(3-(3-methylpyridin-4-yl)phenyl)propan-2-yl)phenyl)sulfonamido)propyl)-2-cyanoguanidino)propanoic acid], in that order: below 100 nM, below 100 nM and 3.1 ng/mL.
On to `Cc1cnccc1-c1cccc(C(C)(C)N(CCCC(=O)NCCS(=O)(=O)O)S(=O)(=O)c2cccc(Cl)c2C)c1` [Compound 20AG, 2-(4-(3-chloro-2-methyl-N-(2-(3-(3-methylpyridin-4-yl)phenyl)propan-2-yl)phenylsulfonamido)butanamido)ethanesulfonic acid], for which the EC50 at human TGR5 receptor and on mouse TGR5 receptor [1] was below 100 nM throughout. Also, in data set [2], the Cmax amounted to 1.4 ng/mL.
As to `CCc1cnccc1-c1cccc(C2CN(C(=O)COCC(=O)O)CCN2S(=O)(=O)c2cccc(Cl)c2C)c1` (stereo not shown) [Compound 46AB, 2-(2-(4-((3-chloro-2-methylphenyl)sulfonyl)-3-(3-(3-ethylpyridin-4-yl)phenyl)piperazin-1-yl)-2-oxoethoxy)acetic acid], the EC50 on human TGR5 receptor and at mouse TGR5 receptor [1] was below 100 nM each time. This compound yielded a Cmax in data set [2] of 4.5 ng/mL.
As for `Cc1cnccc1-c1cccc(C2(N(CCCC(=O)NCCS(=O)(=O)O)S(=O)(=O)c3cccc(Cl)c3C)COC2)c1` [Compound 20BN, 2-(4-(3-chloro-2-methyl-N-(3-(3-(3-methylpyridin-4-yl)phenyl)oxetan-3-yl)phenylsulfonamido)butanamido)ethanesulfonic acid], the concentration giving a half-maximal response (EC50) on human TGR5 receptor is below 100 nM; on mouse TGR5 receptor [1] it was 100 to 999 nM. The same compound gave a Cmax in data set [2] of 478 ng/mL.
For `Cc1cnccc1-c1cccc(C(C)(C)N(CCCC(=O)NCCS(N)(=O)=O)S(=O)(=O)c2cccc(Cl)c2C)c1` [Compound 20AE, 4-(3-chloro-2-methyl-N-(2-(3-(3-methylpyridin-4-yl)phenyl)propan-2-yl)phenylsulfonamido)-N-(2-sulfamoylethyl)butanamide], in that order: below 100 nM, below 100 nM and 128 ng/mL.
For the compound `COc1cnccc1-c1cccc(C(C)(C)NS(=O)(=O)c2cccc(Cl)c2)c1` [Compound 2AY], the EC50 at human TGR5 receptor and at mouse TGR5 receptor [3] was 100 to 999 nM in each case.
In the case of `Nc1cnccc1-c1cccc(CNS(=O)(=O)c2cccc(C(F)(F)F)c2)c1` [Compound 1BG], the EC50 at human TGR5 receptor is 100 to 999 nM; at mouse TGR5 receptor [3], 1000 to 30000 nM.
On the same counts, the results for `Cc1ccc(C(C)(C)NS(=O)(=O)c2cccc(C(F)(F)F)c2)cc1-c1ccncc1` [Compound 1BW] are 1000 to 30000 nM and above 30000 nM.
As to `CC(C)Oc1cnccc1-c1cccc(C(C)(C)NS(=O)(=O)c2cccc(C(F)(F)F)c2)c1` [Compound 8AA, N-(2-(3-(3-isopropoxypyridin-4-yl)phenyl)propan-2-yl)-3-(trifluoromethyl)benzenesulfonamide], the EC50 on human TGR5 receptor and at mouse TGR5 receptor [3] was 100 to 999 nM throughout.
Consider `COc1cnccc1-c1cccc(C(C)(C)NS(=O)(=O)c2cccc(C)c2)c1` [Compound 2AZ], for which the EC50 on human TGR5 receptor and at mouse TGR5 receptor [3] was 100 to 999 nM in each case.
